Experimental data from the AptaBench aptamer set (doi:10.1093/nar/gkaf219).

Key:
Details in all cases: 10 mM Tris-HCl, pH 7.4
[1] = tested on: DNA aptamer or structured DNA CTTACGACAAAGGCTCGGGCTCCCATGATGGATTCGTTGTCGTAAG
[2] = tested on: DNA aptamer or structured DNA CTTACGACAAGGGATGTTTGTTAGTGTGTCGGATCTATGTCGTAAG
[3] = tested on: DNA aptamer or structured DNA CTTACGACCTGCTCTGAGGGTCAACGGTGGTGTAGTCGGTCGTAAG
[4] = tested on: DNA aptamer or structured DNA CTTACGACTTACTTTTGGGTTGTCTGGGTGGGAGGTATGTCGTAAG
[5] = tested on: DNA aptamer or structured DNA CTTACGACTTGTTCTGAGGGTCAACGGTGGTGTAGTTAGTCGTAAG
[6] = tested on: DNA aptamer or structured DNA GGGACGACAAGTCAGGCCTGTCTCAGCGAGTTCGACATGTCGTCCC
[7] = tested on: DNA aptamer or structured DNA GGGACGACACGTGTGGCTGGTAGGGTAGGTCTTGTCGCGTCGTCCC
[8] = tested on: DNA aptamer or structured DNA GGGACGACATCGTAGGGGCACACGCTTAACGGGCTGATGTCGTCCC
[9] = tested on: DNA aptamer or structured DNA GGGACGACCCGTAGGGGTACACGCTCTATGGGGGCTGGGTCGTCCC
[10] = tested on: DNA aptamer or structured DNA GGGACGACGCCGGCTTCTAGGGGGGGTGTGGGTGGCGAGTCGTCCC
[11] = tested on: DNA aptamer or structured DNA GGGACGACGCGCATGTGGTGTCGGTCAGATGGGATGAAGTCGTCCC
[12] = tested on: DNA aptamer or structured DNA GGGACGACGGGGGGAGTAATGTTTGTGTGGGGGAGCCGGTCGTCCC
[13] = tested on: DNA aptamer or structured DNA GGGACGACGGGGGGCTTTAGGGTGTAGGAGTGGGGTGAGTCGTCCC
[14] = tested on: DNA aptamer or structured DNA GGGACGACGGTTGGCATTGGGTCGGGTGTGGGTGCGGCGTCGTCCC
[15] = tested on: DNA aptamer or structured DNA GGGACGACTACGTAGCCCTGTCTCAGCGAGTTCGCGGAGTCGTCCC
[16] = tested on: DNA aptamer or structured DNA CTTACGACACAGGGGGGGGCTAGGGTGCGCGGAAGCTGGTCGTAAG
[17] = tested on: DNA aptamer or structured DNA CTTACGACACAGGGTGTGTTGTGCTCAGTGGTGTATGTGTCGTAAG
[18] = tested on: DNA aptamer or structured DNA CTTACGACGGGGTGGGGGCGGCTTCCCATGGGAGGGGTGTCGTAAG
[19] = tested on: DNA aptamer or structured DNA GGGACGACGCACTATGGCTAGGGTTGGTACGGTCGTGAACCGCGGGGTGTCGTCCC
[20] = tested on: DNA aptamer or structured DNA GGGACGACGCGTACCATGGGTAGTTGCACGTCGTCCAAGTCGTCCC
[21] = tested on: DNA aptamer or structured DNA GGGACGACGGCAATTGCCGGTGCAGGATCTGAATTATCGTCGTCCC
[22] = tested on: DNA aptamer or structured DNA GGGACGACGGCACGAGGTTAATCGTTGGTTGCACTGCGCTGGGAGGCAGTCGTCCC
[23] = tested on: DNA aptamer or structured DNA GGGACGACTACAGGTCGTGCGTTGCTCGAGTTGGTGAGTGTGTCGTCCC
[24] = tested on: DNA aptamer or structured DNA GGGACGACTAGCCCGGCGTTGTTCGAGTGCAGCGAGTAGTCGTCCC
[25] = tested on: DNA aptamer or structured DNA GGGACGACTAGCCGTGGCGTTGTTCGAGTGCAGCGAGTAGTCGTCCC
[26] = tested on: DNA aptamer or structured DNA TTCAAATCTGAGCAGCCTAGTTACTGACGGGTTTATAGTACTCGCACTGAGTCTAGATTTGAA
[27] = tested on: DNA aptamer or structured DNA TTCAAATCTTGCGAATTGGACTCAGAATGTGGGTTTGCCAGTCTAGATTTGAA
[28] = tested on: DNA aptamer or structured DNA GGGACGACTAGCCCTAGCGTTGTTCGAGTCCATGAGTAGTCGTCCC
Throughout, for binding call: call rule not given here.

`COc1ccc2c3c1O[C@H]1C(=O)CC[C@@]4(O)[C@@H](C2)N(C)CC[C@]314` was tested, and the binding call [1] was “no binding”, the binding call [2] was “no binding” and the binding call [3] was “no binding”. For the same molecule, the binding call [4] was “no binding”, the binding call [5] was “no binding” and the Kd [6] was 0.45 µM. The binding call [7] was “binds”, the Kd [8] was 1.42 µM and the Kd [9] was 0.5 µM. For the same molecule, the binding call [10] was “binds”, the Kd [11] was 3.7 µM and the Kd [12] was 1.19 µM. For the same molecule, the binding call [13] was “no binding”, the binding call [14] was “no binding” and the Kd [15] was 1.15 µM.
For `CN[C@@H](C)Cc1ccccc1`, the binding call [1] was “no binding”, the binding call [2] was “no binding” and the binding call [16] was “no binding”. For the same molecule, the binding call [17] was “binds”, the binding call [3] was “no binding” and the binding call [18] was “no binding”. The binding call [4] was “no binding”, the binding call [5] was “no binding” and the binding call [6] was “no binding”. For the same molecule, the binding call [7] was “no binding”, the Kd [19] was 12.4 µM and the binding call [10] was “no binding”. For the same molecule, the binding call [11] was “no binding”, the binding call [20] was “no binding” and the Kd [21] was 10.1 µM. The Kd [22] was 6.4 µM, the binding call [13] was “no binding” and the binding call [14] was “no binding”. For the same molecule, the Kd [23] was 3.6 µM, the binding call [24] was “no binding” and the binding call [25] was “no binding”. For the same molecule, the Kd [26] was 7.01 µM and the binding call [27] was “no binding”.
For `c1ccc([C@H]2CN3CCSC3=N2)cc1`, the binding call [1] was “no binding”, the binding call [2] was “binds” and the binding call [16] was “no binding”. For the same molecule, the binding call [5] was “no binding”, the binding call [6] was “no binding” and the binding call [8] was “no binding”. For the same molecule, the binding call [9] was “no binding”, the binding call [11] was “no binding” and the binding call [20] was “no binding”. For the same molecule, the binding call [12] was “no binding”, the binding call [15] was “no binding” and the binding call [24] was “no binding”. For the same molecule, the binding call [28] was “no binding” and the binding call [25] was “no binding”.
For `Cn1c(=O)c2c(ncn2C)n(C)c1=O`, the binding call [2] was “no binding”, the binding call [16] was “no binding” and the binding call [17] was “no binding”. For the same molecule, the binding call [3] was “no binding”, the binding call [18] was “no binding” and the binding call [6] was “binds”. The binding call [8] was “no binding”, the binding call [9] was “no binding” and the binding call [11] was “binds”. For the same molecule, the binding call [21] was “no binding”, the binding call [12] was “no binding” and the binding call [24] was “no binding”. The binding call [26] was “no binding”.
